pIC50: −log10 of the molar value.
System: 565726-208-R1-J5-PDC complex spheroids, growth inhibition
Test: Anticancer human tumor 565726-208-R1-J5-PDC patient-derived pancreatic adenocarcinoma cell line growth inhibition [RAS]
Conditions: for pIC50: curve of first compound; for viability, T/C: stronger effect = lower value; active = viability on the fitted dose curve at most 10% of control; inactive = the rest
In short: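 Multi-cell-type spheroids: tumor cells plus HUVEC endothelial cells and mesenchymal stem cells. RAS-pathway inhibitors were combined with targeted agents, each dosed in half-log steps down from clinical Cmax, or from 10 microM when Cmax was unknown.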

[1] = second compound 0.000949 µM, first compound 0.0316 µM
[2] = second compound 0.000949 µM, first compound 0.1 µM
[3] = second compound 0.000949 µM, first compound 0.316 µM
[4] = second compound 0.000949 µM, first compound 1 µM
[5] = second compound 0.000949 µM, first compound 3.16 µM
[6] = second compound 0.000949 µM, first compound 10 µM
[7] = second compound 0.003 µM, first compound 0.0316 µM
[8] = second compound 0.003 µM, first compound 0.1 µM
[9] = second compound 0.003 µM, first compound 0.316 µM
[10] = second compound 0.003 µM, first compound 1 µM
[11] = second compound 0.003 µM, first compound 3.16 µM
[12] = second compound 0.003 µM, first compound 10 µM
[13] = second compound 0.00949 µM, first compound 0.0316 µM
[14] = second compound 0.00949 µM, first compound 0.1 µM
[15] = second compound 0.00949 µM, first compound 0.316 µM
[16] = second compound 0.00949 µM, first compound 1 µM
[17] = second compound 0.00949 µM, first compound 3.16 µM
[18] = second compound 0.00949 µM, first compound 10 µM
[19] = second compound 0.03 µM, first compound 0.0316 µM
[20] = second compound 0.03 µM, first compound 0.1 µM
[21] = second compound 0.03 µM, first compound 0.316 µM
[22] = second compound 0.03 µM, first compound 1 µM
[23] = second compound 0.03 µM, first compound 3.16 µM
[24] = second compound 0.03 µM, first compound 10 µM
[25] = second compound 0.0949 µM, first compound 0.0316 µM
[26] = second compound 0.0949 µM, first compound 0.1 µM
[27] = second compound 0.0949 µM, first compound 0.316 µM
[28] = second compound 0.0949 µM, first compound 1 µM
[29] = second compound 0.0949 µM, first compound 3.16 µM
[30] = second compound 0.0949 µM, first compound 10 µM
[31] = second compound 0.3 µM, first compound 0.0316 µM
[32] = second compound 0.3 µM, first compound 0.1 µM
[33] = second compound 0.3 µM, first compound 0.316 µM
[34] = second compound 0.3 µM, first compound 1 µM
[35] = second compound 0.3 µM, first compound 3.16 µM
[36] = second compound 0.3 µM, first compound 10 µM
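Note: spheroids exposed to compounds for seven days before readout.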
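Throughout, for viability, T/C: 100% = DMSO vehicle control viability.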

CC1(O)CCCC1n1c(=O)c(C(F)F)cc2cnc(NC3CCN(S(C)(=O)=O)CC3)nc21 (centres undefined) + CCn1c(-c2cc(N3CCN(C)CC3)cnc2C(C)OC)c2c3cc(ccc31)-c1csc(n1)CC(NC(=O)C1CC1C)C(=O)N1CCCC(N1)C(=O)OCC(C)(C)C2
inactive: viability, T/C [1] 58% | viability, T/C [2] 46.6% | viability, T/C [3] 47.6% | viability, T/C [4] 50.4% | viability, T/C [5] 33.1% | viability, T/C [7] 48.5% | viability, T/C [8] 45.7% | viability, T/C [9] 43.9% | viability, T/C [10] 37.1% | viability, T/C [11] 26.5% | viability, T/C [13] 41.4% | viability, T/C [14] 36.7% | viability, T/C [15] 37.6% | viability, T/C [16] 31.7% | viability, T/C [17] 25% | viability, T/C [19] 34.2% | viability, T/C [20] 29.8% | viability, T/C [21] 31.3% | viability, T/C [22] 31.2% | viability, T/C [23] 17.3% | viability, T/C [25] 25.7% | viability, T/C [26] 25.4% | viability, T/C [27] 26% | viability, T/C [28] 24.2% | viability, T/C [29] 15.3% | viability, T/C [31] 19.9% | viability, T/C [32] 25.7% | viability, T/C [33] 22% | viability, T/C [34] 24.2% | viability, T/C [35] 14.6%
active: viability, T/C [6] 3.21% | viability, T/C [12] 2.82% | viability, T/C [18] 3.34% | viability, T/C [24] 3.06% | viability, T/C [30] 2.88% | viability, T/C [36] 3.06%
6.00: pIC50 (second compound 0.000949 µM)
> 7.50: pIC50 (second compound 0.003 µM) | pIC50 (second compound 0.00949 µM) | pIC50 (second compound 0.03 µM) | pIC50 (second compound 0.0949 µM) | pIC50 (second compound 0.3 µM)

CCC(CC)c1cc(NC2CCC(N)C2)n2nccc2n1 (centres undefined) + CCn1c(-c2cc(N3CCN(C)CC3)cnc2C(C)OC)c2c3cc(ccc31)-c1csc(n1)CC(NC(=O)C1CC1C)C(=O)N1CCCC(N1)C(=O)OCC(C)(C)C2
> 7.50: pIC50 (second compound 0.00949 µM) | pIC50 (second compound 0.03 µM) | pIC50 (second compound 0.0949 µM) | pIC50 (second compound 0.3 µM)
6.47: pIC50 (second compound 0.003 µM)
active: viability, T/C [5] 0.45% | viability, T/C [6] 1.67% | viability, T/C [11] 0.47% | viability, T/C [12] 1.59% | viability, T/C [17] 0.24% | viability, T/C [18] 2.02% | viability, T/C [23] 0.4% | viability, T/C [24] 1.85% | viability, T/C [29] 0.44% | viability, T/C [30] 1.98% | viability, T/C [35] 0.5% | viability, T/C [36] 1.9%
6.29: pIC50 (second compound 0.000949 µM)
inactive: viability, T/C [1] 61.1% | viability, T/C [2] 60% | viability, T/C [3] 65.7% | viability, T/C [4] 32.4% | viability, T/C [7] 56.6% | viability, T/C [8] 51.5% | viability, T/C [9] 50% | viability, T/C [10] 27.7% | viability, T/C [13] 47.2% | viability, T/C [14] 38.9% | viability, T/C [15] 34% | viability, T/C [16] 24.6% | viability, T/C [19] 31.3% | viability, T/C [20] 36.5% | viability, T/C [21] 31% | viability, T/C [22] 20.2% | viability, T/C [25] 27.4% | viability, T/C [26] 27% | viability, T/C [27] 24.2% | viability, T/C [28] 16.8% | viability, T/C [31] 23.5% | viability, T/C [32] 27.1% | viability, T/C [33] 23.1% | viability, T/C [34] 13.9%

From PubChem BioAssay AID2060899 (Molecular Pharmacology Branch, DTP, NCI, 2025)
